Results published in patent publication US4110327A, “2,3 Diketo-piperazinocarbonylamino alkanoic acids and derivatives” (Toyama Chemical Co., Ltd., priority 1974, dated 1978).
In brackets after ≈: the same amount, converted by molar mass.

Experiments:
[1] = tested on: Proteus rettgeri; experiment: MIC against clinical isolates; assay type: cell-based; details: clinical isolate, unit assumed
[2] = tested on: Proteus vulgaris; experiment: MIC against clinical isolates; assay type: cell-based; details: clinical isolate, unit assumed
[3] = tested on: Klebsiella pneumoniae; experiment: MIC against clinical isolates; assay type: cell-based; details: unit assumed
[4] = tested on: Escherichia coli NIHJ; experiment: MIC against standard strain, plate method; assay type: cell-based; details: unit assumed
Procedure, shortened: (§1)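 Heart infusion agar (pH 7.4) plates; inoculum 10^4 cells/plate (10^6 cells/ml suspension); MIC read by plate method.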

[5] = tested on: Proteus vulgaris 3027; experiment: MIC against standard strain, plate method; assay type: cell-based; details: Proteus vulgaris 3027, standard strain; unit assumed
Procedure, shortened: as §1

[6] = tested on: Pseudomonas aeruginosa I.F.O.; experiment: MIC against standard strain, plate method; assay type: cell-based; details: unit assumed
Procedure, shortened: as §1

[7] = tested on: Staphylococcus aureus 209p; experiment: MIC against standard strain, plate method; assay type: cell-based; details: unit assumed
Procedure, shortened: as §1

[8] = tested on: Pseudomonas aeruginosa; experiment: MIC against clinical isolates; assay type: cell-based; details: unit assumed
[9] = tested on: Proteus mirabilis; experiment: MIC against clinical isolates; assay type: cell-based; details: clinical isolate, unit assumed
[10] = tested on: Salmonella typhi; experiment: MIC against clinical isolates; assay type: cell-based; details: unit assumed
[11] = tested on: Salmonella typhi-murium; experiment: MIC against clinical isolates; assay type: cell-based; details: unit assumed
[12] = tested on: Proteus morganii; experiment: MIC against clinical isolates; assay type: cell-based; details: clinical isolate, unit assumed
[13] = tested on: Staphylococcus aureus; experiment: MIC against clinical isolates; assay type: cell-based; details: unit assumed
[14] = tested on: Escherichia coli; experiment: MIC against clinical isolates; assay type: cell-based; details: unit assumed
[15] = tested on: Shigella sonnei; experiment: MIC against clinical isolates; assay type: cell-based; details: unit assumed
Description: (§2) The minimum inhibitory concentrations (MIC) was determined by the plate method disclosed in "Chemotherapy" (Japan), Vol. 16, (1968), pages 98 - 99. The culture medium used was a Heart infusion agar (pH 7.4). The number of the cells per plate used in the inoculum as 10^4 (10^6 cells/ml).
(§3) MIC was determined in the same manner as in the preceding paragraph (1).

[16] = tested on: Shigella flexneri; experiment: MIC against clinical isolates; assay type: cell-based; details: unit assumed
Description: as §2, §3

[17] = tested on: β-lactamase; experiment: Resistant activity against β-lactamase, iodometric assay; assay type: biochemical, Pseudomonas aeruginosa GN 238; details: relative to Potassium Penicillin G = 100
Description: (3) Resistant activity against β-lactamase, Pseudomonas aergionan GN 238:
The resistant activity of each compound against β-lactamase was measured in the manner described below.
β-Lactamase was prepared from Pseudomonas aeruginosa GN 238. This microorganism was cultured in 100 ml of a medium containing 2 g of yeast extract, 10 g of polypeptone, 2 g of glucose, 7 g of disodium hydrogen phosphate, 2 g of potassium dihydrogen phosphate, 1.2 g of ammonium sulfate and 0.4 g of magnesium sulfate, per liter, in a 500-ml Erlenmeyer flask for 6 hrs. at 37° C with shaking. The resulting cells were collected by centrifugation (5,000 r.p.m. × 10 min.), washed three times with 0.1 M phosphate buffer (pH 7.0). Subsequently, the cells were subjected to sonication (20 KHz, 20 min.) and then centrifuged at 15,000 r.p.m. for 60 min. By using the supernatant of enzyme fluid, the resistance of each compound against β-lactamase was determined by the iodometric assay method. Each numeral shown in Table 7 is a relative activity value calculated by assuming as 100 the activity of the control Potassium Penicillin G.

[18] = tested on: Klebsiella pneumoniae; experiment: MIC against standard strain, plate method; assay type: cell-based; details: unit assumed
Procedure, shortened: as §1

CCCCCCCCN1CCN(C(=O)N[C@@H](C(=O)N[C@@H]2C(=O)N3[C@@H]2SC(C)(C)[C@@H]3C(=O)O)c2ccccc2)C(=O)C1 [compound 16]
MIC [1]: 6.25 µg/mL (≈ 10.6 µM) | MIC [2]: 0.8 µg/mL (≈ 1.36 µM) | MIC ([3]; clinical isolate GN 917): 12.5 µg/mL (≈ 21.3 µM) | MIC ([3]; clinical isolate GN 4081): 25 µg/mL (≈ 42.5 µM) | MIC ([3]; clinical isolate GN 4117): 25 µg/mL (≈ 42.5 µM) | MIC [4]: < 1.57 µg/mL | MIC [5]: < 1.57 µg/mL | MIC [6]: 12.5 µg/mL (≈ 21.3 µM) | MIC [7]: < 1.57 µg/mL | MIC ([8]; clinical isolate GN 82): 6.25 µg/mL (≈ 10.6 µM) | MIC ([8]; clinical isolate GN 163): 12.5 µg/mL (≈ 21.3 µM) | MIC ([8]; clinical isolate GN 221): 25 µg/mL (≈ 42.5 µM) | MIC ([8]; clinical isolate GN 376): 25 µg/mL (≈ 42.5 µM) | MIC ([8]; clinical isolate GN 383): 25 µg/mL (≈ 42.5 µM) | MIC ([8]; clinical isolate GN 1035): 25 µg/mL (≈ 42.5 µM) | MIC ([8]; clinical isolate GN 1091): 12.5 µg/mL (≈ 21.3 µM) | MIC ([8]; clinical isolate GN 2565): 12.5 µg/mL (≈ 21.3 µM) | MIC ([8]; clinical isolate GN (number not given; Table 5-3)): 12.5 µg/mL (≈ 21.3 µM) | MIC ([8]; clinical isolate S-1): 12.5 µg/mL (≈ 21.3 µM) | MIC ([8]; clinical isolate S-2): 25 µg/mL (≈ 42.5 µM) | MIC ([8]; clinical isolate S-3): 50 µg/mL (≈ 85.1 µM) | MIC ([8]; clinical isolate S-4): 25 µg/mL (≈ 42.5 µM) | MIC [9]: 1.56 µg/mL (≈ 2.65 µM) | MIC ([10]; clinical isolate SL 819): 3.13 µg/mL (≈ 5.33 µM) | MIC ([10]; clinical isolate SL 2169): 1.57 µg/mL (≈ 2.67 µM) | MIC ([11]; clinical isolate SL 858): 1.57 µg/mL (≈ 2.67 µM) | MIC ([11]; clinical isolate SL 2136): 100 µg/mL (≈ 170 µM) | MIC [12]: 1.56 µg/mL (≈ 2.65 µM) | MIC ([13]; clinical isolate F-1): 6.25 µg/mL (≈ 10.6 µM) | MIC ([13]; clinical isolate F-2): 0.79 µg/mL (≈ 1.34 µM) | MIC ([13]; clinical isolate F-4): 6.25 µg/mL (≈ 10.6 µM) | MIC ([13]; clinical isolate F-5): 100 µg/mL (≈ 170 µM) | MIC ([13]; clinical isolate MS 8619): < 0.4 µg/mL | MIC ([14]; clinical isolate GN 3465): 12.5 µg/mL (≈ 21.3 µM) | MIC ([14]; clinical isolate K-3): 50 µg/mL (≈ 85.1 µM) | MIC ([15]; clinical isolate JS 11232): 6.25 µg/mL (≈ 10.6 µM) | MIC ([16]; clinical isolate JS 11215): 6.25 µg/mL (≈ 10.6 µM) | MIC ([16]; clinical isolate JS 11839): 0.79 µg/mL (≈ 1.34 µM)

CC(C)N1CCN(C(=O)N[C@@H](C(=O)N[C@@H]2C(=O)N3[C@@H]2SC(C)(C)[C@@H]3C(=O)O)c2ccccc2)C(=O)C1=O (single isomer, unassigned) [compound 40]
Relative activity [17]: 15% | MIC [2]: < 0.4 µg/mL | MIC ([3]; clinical isolate GN 3850): 12.5 µg/mL (≈ 23.5 µM) | MIC ([3]; clinical isolate GN 4081): 100 µg/mL (≈ 188 µM) | MIC ([3]; clinical isolate GN 4117): 50 µg/mL (≈ 94.1 µM) | MIC [18]: 3.13 µg/mL (≈ 5.89 µM) | MIC [4]: < 0.1 µg/mL | MIC [5]: 0.4 µg/mL (≈ 0.752 µM) | MIC [7]: 0.4 µg/mL (≈ 0.752 µM) | MIC ([8]; clinical isolate GN 376): 3.13 µg/mL (≈ 5.89 µM) | MIC ([8]; clinical isolate GN 1035): 25 µg/mL (≈ 47 µM) | MIC ([8]; clinical isolate GN 2565): 12.5 µg/mL (≈ 23.5 µM) | MIC ([8]; clinical isolate GN 2987): 3.13 µg/mL (≈ 5.89 µM) | MIC ([8]; clinical isolate S-1): 12.5 µg/mL (≈ 23.5 µM) | MIC ([8]; clinical isolate S-2): 25 µg/mL (≈ 47 µM) | MIC ([8]; clinical isolate S-3): 25 µg/mL (≈ 47 µM) | MIC ([8]; clinical isolate S-4): 12.5 µg/mL (≈ 23.5 µM) | MIC [9]: < 0.4 µg/mL | MIC ([10]; clinical isolate SL 819): 1.57 µg/mL (≈ 2.95 µM) | MIC ([10]; clinical isolate SL 2169): 1.57 µg/mL (≈ 2.95 µM) | MIC ([11]; clinical isolate SL 858): 6.25 µg/mL (≈ 11.8 µM) | MIC ([11]; clinical isolate SL 2136): > 200 µg/mL | MIC [12]: 0.79 µg/mL (≈ 1.49 µM) | MIC ([13]; clinical isolate F-2): 3.13 µg/mL (≈ 5.89 µM) | MIC ([13]; clinical isolate F-3): 0.79 µg/mL (≈ 1.49 µM) | MIC ([13]; clinical isolate F-5): > 200 µg/mL | MIC ([13]; clinical isolate MS 8588): 3.13 µg/mL (≈ 5.89 µM) | MIC ([13]; clinical isolate MS 8596): 3.13 µg/mL (≈ 5.89 µM) | MIC ([13]; clinical isolate MS 8619): 0.79 µg/mL (≈ 1.49 µM) | MIC ([13]; clinical isolate MS 8684): 3.13 µg/mL (≈ 5.89 µM) | MIC ([13]; clinical isolate MS 8713): 12.5 µg/mL (≈ 23.5 µM) | MIC ([14]; clinical isolate GN 3435): 0.79 µg/mL (≈ 1.49 µM) | MIC ([14]; clinical isolate GN 3465): 50 µg/mL (≈ 94.1 µM) | MIC ([14]; clinical isolate GN 3611): > 200 µg/mL | MIC ([14]; clinical isolate K-2): 3.13 µg/mL (≈ 5.89 µM) | MIC ([14]; clinical isolate K-3): > 200 µg/mL | MIC ([14]; clinical isolate K-4): 0.79 µg/mL (≈ 1.49 µM) | MIC ([15]; clinical isolate JS 11232): 50 µg/mL (≈ 94.1 µM) | MIC ([15]; clinical isolate JS 11755): 3.13 µg/mL (≈ 5.89 µM) | MIC ([16]; clinical isolate JS 11215): 50 µg/mL (≈ 94.1 µM) | MIC ([16]; clinical isolate JS 11839): 3.13 µg/mL (≈ 5.89 µM)
